Results reported in US20240140957A1, “BRIDGED COMPOUNDS AS KRAS G12D INHIBITOR AND DEGRADER AND THE USE THEREOF” (BeiGene Switzerland GmbH, priority 2021, published 2024).

Tests used:
[1] = system: pERK1/2 (THR202/TYR204) in AsPC-1 cells; assay: pERK Assay (HTRF) in AsPC-1 cells; format: cell-based; settings: Homo sapiens, ASPC1, 2 h compound treatment
Experimental: AsPC-1 cell line was used in this study. […] 30000 cells per well were seeded into a 96-well plate and incubated overnight. […] After 2 h compound treatment, cells were lysed, and the pERK1/2 (THR202/TYR204) level in the cell lysates was detected by HTRF kit (Cisbio). In brief, a total of 16 μL of cell lysate from each well of a 96-well plate was transferred to a 384-well white assay plate. Lysate from each well was incubated with 2 μL of Eu3+-cryptate (donor) labeled anti-phospho-ERK1/2 and 2 μL of D2 (acceptor) labeled anti-phospho-ERK1/2 antibodies (Cisbio) overnight in dark at room temperature. When donor and acceptor are in close proximity, excitation of the donor with laser triggers a Fluorescence Resonance Energy Transfer (FRET) towards the acceptor, which in turn fluoresces at 655 nm wavelength. FRET signals were measured using a PHERAstar FSX reader (BMG Labtech).

GDP-loaded KRAS G12D = GDP-loaded KRAS G12D (Homo sapiens, UniProt P01116, G12D); assay: KRAS G12D Probe Displacement Assay; format: binding; settings: KRAS G12D 0.5 nM, biotinylated probe 2 4 nM; read-out: KRAS G12D Probe Displacement Assay IC50
GDP-loaded WT KRAS = GDP-loaded WT KRAS (Homo sapiens, UniProt P01116); assay: KRAS WT Probe Displacement Assay; format: binding; settings: WT KRAS 3 nM, biotinylated probe 1 60 nM; read-out: KRAS WT Probe Displacement Assay IC50
GDP-loaded WT KRAS, sequence (P01116 1-188 isoform P01116-2): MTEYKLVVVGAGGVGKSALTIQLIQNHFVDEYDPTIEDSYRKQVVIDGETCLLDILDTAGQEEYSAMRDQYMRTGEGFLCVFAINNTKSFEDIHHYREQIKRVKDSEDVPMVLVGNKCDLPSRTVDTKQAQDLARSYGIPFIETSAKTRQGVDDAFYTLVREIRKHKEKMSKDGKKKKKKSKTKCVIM

GDP-loaded KRAS G12D, sequence (P01116 1-188 isoform P01116-2 G12D): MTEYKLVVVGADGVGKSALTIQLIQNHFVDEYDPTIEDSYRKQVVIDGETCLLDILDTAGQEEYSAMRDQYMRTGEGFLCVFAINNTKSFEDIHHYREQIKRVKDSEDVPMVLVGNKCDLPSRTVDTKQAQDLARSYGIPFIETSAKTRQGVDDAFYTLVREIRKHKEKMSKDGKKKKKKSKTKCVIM

| SMILES | IC50 [1] [nM] | IC50 (GDP-loaded KRAS G12D) [nM] | IC50 (GDP-loaded WT KRAS) [nM] |
| --- | --- | --- | --- |
| Cc1cc(N)nc(-c2c(Cl)cc3c(N4C5CNCC4COC5)nc(OC[C@@]45CCCN4C[C@H](F)C5)nc3c2F)c1C(F)(F)F (stereo in doubt) [Example E88, 6-(4-(3-oxa-7,9-diazabicyclo[3.3.1]nonan-9-yl)-6-chloro-8-fluoro-2-((2-fluorotetrahydro-1H-pyrrolizin-7a(5H)-yl)methoxy)quinazolin-7-yl)-4-methyl-5-(trifluoromethyl)pyridin-2-amine] | 172 | 1.7 | 49 |
| Nc1nc2c(-c3c(C(F)(F)F)cc4c(N5CC6CCC(C5)N6)nc(OC[C@@]56CCCN5C[C@H](F)C6)nc4c3F)ccc(F)c2s1 [Example E52, 4-(4-(3,8-diazabicyclo[3.2.1]octan-3-yl)-8-fluoro-2-(((2R,7aS)-2-fluorotetrahydro-1H-pyrrolizin-7a(5H)-yl)methoxy)-6-(trifluoromethyl)quinazolin-7-yl)-7-fluorobenzoI[d]thiazol-2-amine] | 48 | 0.36 | 3 |
| Nc1nc2c(-c3c(Cl)cc4c(N5CC6CCC(C5)N6)nc(OCC56CCCN5CC(F)C6)nc4c3F)ccc(F)c2s1 (stereo not drawn) [Example E54, 4-(4-(3,8-diazabicyclo[3.2.1]octan-3-yl)-6-chloro-8-fluoro-2-((2-fluorotetrahydro-1H-pyrrolizin-7a(5H)-yl)methoxy)quinazolin-7-yl)-7-fluorobenzo[d]thiazol-2-amine] | 205 | 0.35 | 7.5 |
| Nc1nc2c(-c3c(C(F)(F)F)cc4c(N5C6CNCC5COC6)nc(OC[C@@]56CCCN5C[C@H](F)C6)nc4c3F)ccc(F)c2s1 [Example E55, 4-(4-(3-oxa-7,9-diazabicyclo[3.3.1]nonan-9-yl)-8-fluoro-2-(((2R,7aS)-2-fluorotetrahydro-1H-pyrrolizin-7a(5H)-yl)methoxy)-6-(trifluoromethyl)quinazolin-7-yl)-7-fluorobenzo[d]thiazol-2-amine] | 59 | 0.25 | 2.7 |
| COCCNC1C[C@H]2CC[C@@H]1N2c1nc(OC[C@@]23CCCN2C[C@H](F)C3)nc2c(F)c(-c3ccc(F)c4sc(N)nc34)c(C(F)(F)F)cc12 (stereo partly drawn) [Example E58, 7-fluoro-4-(8-fluoro-2-(((2R,7aS)-2-fluorotetrahydro-1H-pyrrolizin-7a(5H)-yl)methoxy)-4-((1S,4R)-2-((2-methoxyethyl)amino)-7-azabicyclo[2.2.1]heptan-7-yl)-6-(trifluoromethyl)quinazolin-7-yl)benzo[d]thiazol-2-amine] | 190 | 0.5 | 7.6 |
| CNC1C[C@H]2CC[C@@H]1N2c1nc(OC[C@@H]2C[C@@H](F)CN2C)nc2c(F)c(-c3ccc(F)c4sc(N)nc34)c(Cl)cc12 (stereo partly drawn) [Example E59, 4-(6-chloro-8-fluoro-2-(((2S,4R)-4-fluoro-1-methylpyrrolidin-2-yl)methoxy)-4-((1S,4R)-2-(methylamino)-7-azabicyclo[2.2.1]heptan-7-yl)quinazolin-7-yl)-7-fluorobenzo[d]thiazol-2-amine] | 1400 | 14 | 390 |
| Nc1nc2c(-c3c(C(F)(F)F)cc4c(N5C6CCC5CNC6)nc(OC[C@@]56CCCN5C[C@H](F)C6)nc4c3F)ccc(F)c2s1 [Example E60, 4-(4-(3,8-diazabicyclo[3.2.1]octan-8-yl)-8-fluoro-2-(((2R,7aS)-2-fluorotetrahydro-1H-pyrrolizin-7a(5H)-yl)methoxy)-6-(trifluoromethyl)quinazolin-7-yl)-7-fluorobenzo[d]thiazol-2-amine] | 34 | 0.27 | 2.6 |
| CN1CCCC1(C)COc1nc(N2CC3CCC(C2)N3)c2cc(Cl)c(-c3ccc(F)c4sc(N)nc34)c(F)c2n1 (stereo not drawn) [Example E61, 4-(4-(3,8-diazabicyclo [3.2.1]octan-3-yl)-6-chloro-2-((1,2-dimethylpyrrolidin-2-yl)methoxy)-8-fluoroquinazolin-7-yl)-7-fluorobenzo[d]thiazol-2-amine] | 2000 | 2.6 | 240 |
| CC1(N2CCCCC2)CN(c2nc(N3CC4CCC(C3)N4)c3cc(Cl)c(-c4ccc(F)c5sc(N)nc45)c(F)c3n2)C1 [Example E62, 4-(4-(3,8-diazabicyclo[3.2.1]octan-3-yl)-6-chloro-8-fluoro-2-(3-methyl-3-(piperidin-1-yl)azetidin-1-yl)quinazolin-7-yl)-7-fluorobenzo[d]thiazol-2-amine] | 740 | 9.6 | 660 |
| Nc1nc2c(-c3c(Cl)cc4c(N5CC6CCC(C5)N6)nc(OC[C@@]56CCCN5C[C@H](F)C6)nc4c3Cl)ccc(F)c2s1 [Example E63, 4-(4-(3,8-diazabicyclo[3.2.1]octan-3-yl)-6,8-dichloro-2-(((2R,7aS)-2-fluorotetrahydro-1H-pyrrolizin-7a(5H)-yl)methoxy)quinazolin-7-yl)-7-fluorobenzo[d]thiazol-2-amine] | 93 | 0.22 | 8.5 |
| Nc1nc2c(-c3c(C(F)(F)F)cc4c(N5CC6CCC(C5)N6)nc(OC[C@@]56CCCN5C[C@H](F)C6)nc4c3Cl)ccc(F)c2s1 [Example E64, 4-(4-(3,8-diazabicyclo[3.2.1]octan-3-yl)-8-chloro-2-(((2R,7aS)-2-fluorotetrahydro-1H-pyrrolizin-7a(5H)-yl)methoxy)-6-(trifluoromethyl)quinazolin-7-yl)-7-fluorobenzoI[d]thiazol-2-amine] | 38 | 0.33 | 5.1 |
| Nc1cc(Cl)c(C(F)(F)F)c(-c2c(Cl)cc3c(N4CC5CCC(C4)N5)nc(OC[C@@]45CCCN4C[C@H](F)C5)nc3c2F)n1 [Example E65, 6-(4-(3,8-diazabicyclo[3.2.1]octan-3-yl)-6-chloro-8-fluoro-2-(((2R,7aS)-2-fluorotetrahydro-1H-pyrrolizin-7a(5H)-yl)methoxy)quinazolin-7-yl)-4-chloro-5-(trifluoromethyl)pyridin-2-amine] | 65 | 0.44 | 20.5 |
| C=Cc1cc2c(N3CC4CCC(C3)N4)nc(OC[C@@H]3C[C@@H](F)CN3C)nc2c(F)c1-c1ccc(F)c2sc(N)nc12 [Example E66, 4-(4-((3,8-diazabicyclo[3.2.1]octan-3-yl)-8-fluoro-2-(((2S,4R)-4-fluoro-1-methylpyrrolidin-)-yl)methoxy)-6-vinylquinazolin-7-yl)-7-fluorobenzo[d]thiazol-2-amine] | 480 | 2.2 | 72 |
| CCc1cc2c(N3CC4CCC(C3)N4)nc(OC[C@@]34CCCN3C[C@H](F)C4)nc2c(F)c1-c1ccc(F)c2sc(N)nc12 [Example E67, 4-(4-(3,8-diazabicyclo[3.2.1]octan-3-yl)-6-ethyl-8-fluoro-2-(((2R,7aS)-2-fluorotetrahydro-1H-pyrrolizin-7a(5H)-yl)methoxy)quinazolin-7-yl)-7-fluorobenzo[d]thiazol-2-amine] | 95 | 0.45 | 9.9 |
| CN(C)CC1(COc2nc(N3CC4CCC(C3)N4)c3cc(Cl)c(-c4ccc(F)c5sc(N)nc45)c(F)c3n2)CCC1 [Example E68, 4-(4-(3,8-diazabicyclo[3.2.1]octan-3-yl)-6-chloro-2-((1-((dimethylamino)-methyl)cyclobutyl)methoxy)-8-fluoroquinazolin-7-yl)-7-fluorobenzo[d]thiazol-2-amine] | 590 | 0.58 | 45 |
